Experiment [1] relates to Bel-7402 human cancer cell line. Description: MTT anti-proliferation assay, Bel-7402. The class given is cell-based. To be noted: for IC50: Homo sapiens, read-out: IC50 Bel 7402. The protocol:
(§1) The cytotoxicities of these compounds were tested on five cancer cell lines by the standard MTT assay. […] The growing tumor cells at a density 10^4 cells/mL were exposed to various concentrations of the tested drugs and incubated in a 96-well microtiter plate for 96 h (37 °C, 5% CO2). After MTT solution (20 μL, 5 mg/mL) was added to each well, the plate was incubated for a further 4 h. Then the media was removed. Formazan crystals were dissolved with DMSO (150 μL). After mixing well, the absorbance was quantified at 570 nm with a BIORAD 550 spectrophotometer. Wells containing no drugs were used as blanks. […] Tumor cell growth inhibitory rate was calculated in the following equation (1): [drawing 3] (1)
Background: Tetrazolium dyes change colour on reduction, which living cells bring about.

Experiment [2] has as its system A-549 human cancer cell line. Description: MTT anti-proliferation assay, A549. It counts as cell-based. To be noted: for IC50: Homo sapiens, read-out: IC50 A549. The protocol:
as §1

Experiment [3] deals with HCT-8 human cancer cell line. Briefly: MTT anti-proliferation assay, HCT-8. The class given is cell-based. To be noted: for IC50: Homo sapiens, read-out: IC50 HCT-8. The protocol: as §1
Experiment [4] concerns BGC-823 human cancer cell line. Description: MTT anti-proliferation assay, BGC-823. The class given is cell-based. The following applies: for IC50: Homo sapiens, read-out: IC50 BGC-823. As for the experimental part:
as §1

Experiment [5] relates to A2780 human cancer cell line. Description: MTT anti-proliferation assay, A2780. It counts as cell-based. To be noted: for IC50: Homo sapiens, read-out: IC50 A2780. The protocol: as §1
The test system of experiment [6] is chick chorioallantoic membrane (CAM). Briefly: Chick chorioallantoic membrane (CAM) angiogenesis assay. It counts as in vivo, White Leghorn chicken. The following applies: for Number of microvessels on CAM, treatment (mean ± s): n = 6, implanted day 7, read day 11, microvessels 1 to 100 μm in diameter. As for the experimental part: Fertilized White Leghorn chicken eggs, provided by the Chinese Academy of Agricultural Sciences, were placed in an incubator as soon as embryogenesis started and were kept under constant humidity of 65% at 37 °C. On day 7, a square window was opened on the shell and physiological saline (0.1 mL) was injected in to detach the shell membrane. Then gelatin sponges carrying the TMP stimulator derivatives at 10 μg/egg and 40 μg/egg were implanted, respectively. The control group was treated with physiological saline. The windows were sealed with medical adhesive tape and the incubation went on till the experiment day. The above steps were performed under sterile conditions. On the 11th day, the tapes were removed and the entire CAM was detached after tissue fixation with methanol/acetone (1:1, v/v). Then we used computer-assisted image tracking to obtain absolute values for the number of microvessels which were 1 to 100 μm in diameter. Data were analyzed using the t-test option of the of Statistics Analysis System, the values were expressed as mean ± s of 6 observations and P < 0.05 was considered significant.

Where [7] appears, read: Bel-7402, MTT, 96 h exposure, maximal tested concentration 10.0 ig/mL.
Where [8] appears, read: A549, MTT, 96 h exposure, maximal tested concentration 10.0 ig/mL.
Where [9] appears, read: HCT-8, MTT, 96 h exposure, maximal tested concentration 10.0 ig/mL.
The mark [10] stands for this setting: BGC-823, MTT, 96 h exposure, maximal tested concentration 10.0 ig/mL.
The mark [11] stands for this setting: A2780, MTT, 96 h exposure, maximal tested concentration 10.0 ig/mL.
The mark [12] stands for this setting: MTT, 96 h exposure, maximal tested concentration 10.0 ig/mL.

Converted amounts (≈) assume the structure as drawn. Read-outs that look alike come from different tables or passages of the source.

A word on the IC50: it is the concentration that gives 50% inhibition. Regarding `C=C(CCC(C(=O)OCc1nc(C)c(C)nc1C)C1[C@H](O)C[C@@]2(C)C3=CCC4C(C)(CCC(OC(C)=O)C4(C)C)C3=CCC12C)C(C)C` (stereo partly drawn) [Compound 9, 3β-Acetoxy-16α-hydroxy-lanosta-7,9(11),24(31)-trien-21-oic acid-3,5,6-trimethylpyrazin-2-methyl ester], the IC50 in experiment [1] (setting [7]) was above 10 µg/mL; in experiment [2] (setting [8]), 8.77 µg/mL (≈ 13.3 µM); in experiment [3] (setting [9]) it was above 10 µg/mL; in experiment [4] (setting [10]), above 10 µg/mL; in experiment [5] (setting [11]), above 10 µg/mL. The entries for the “Number of microvessels on CAM, treatment (mean ± s)” value (from here on “Number of microvessels on CAM”) in experiment [6] (dose 10 μg/egg) and in experiment [6] (dose 40 μg/egg) were 7.7 ± 2.16 and 5.7 ± 1.21, respectively.
Regarding `C=C(CCC(C(=O)OCc1nc(C)c(C)nc1C)C1[C@H](O)C[C@@]2(C)C3=C(CCC12C)C1(C)CCC(OC(C)=O)C(C)(C)C1CC3)C(C)C` (stereo partly drawn) [Compound 8, 3β-Acetoxy-16α-hydroxy-lanosta-8,24(31)-diene-21-oic acid-3,5,6-trimethylpyrazin-2-methyl ester], the IC50 in experiment [1] (setting [7]), in experiment [2] (setting [8]), in experiment [3] (setting [9]), in experiment [4] (setting [10]) and in experiment [5] (setting [11]) was above 10 µg/mL each time. For the same compound, the “Number of microvessels on CAM” value was 9.7 ± 3.98 in experiment [6] (dose 10 μg/egg) and 10.8 ± 5.12 in experiment [6] (dose 40 μg/egg).
As to `O=C(O)/C=C/c1ccccc1` [CIA, cinnamic acid], the IC50 in experiment [1] (setting [7]), in experiment [2] (setting [8]), in experiment [3] (setting [9]), in experiment [4] (setting [10]) and in experiment [5] (setting [11]) was above 10 µg/mL throughout.
For the compound `C=C(CC[C@@H](C(=O)O)[C@H]1[C@H](O)C[C@@]2(C)C3=C(CC[C@]12C)[C@@]1(C)CC[C@H](OC(C)=O)C(C)(C)[C@@H]1CC3)C(C)C` [PA, pachymic acid], the concentration for half-maximal inhibition (IC50) in experiment [1] (setting [7]), in experiment [2] (setting [8]), in experiment [3] (setting [9]), in experiment [4] (setting [10]) and in experiment [5] (setting [11]) was above 10 µg/mL in each case.
On to `C[C@H](CCC(=O)O)[C@H]1CC[C@H]2[C@@H]3CC[C@@H]4C[C@H](O)CC[C@]4(C)[C@H]3C[C@H](O)[C@]12C` [DA, deoxycholic acid], for which the IC50 in experiment [1] (setting [7]), in experiment [2] (setting [8]), in experiment [3] (setting [9]), in experiment [4] (setting [10]) and in experiment [5] (setting [11]) was above 10 µg/mL in each case.
For `CC1(C)[C@@H](O)CC[C@]2(C)[C@H]3C(=O)C=C4[C@@H]5C[C@@](C)(C(=O)O)CC[C@]5(C)CC[C@@]4(C)[C@]3(C)CC[C@@H]12` [GA, glycyrrhetinic acid], the IC50 in experiment [1] (setting [7]), in experiment [2] (setting [8]), in experiment [3] (setting [9]), in experiment [4] (setting [10]) and in experiment [5] (setting [11]) was above 10 µg/mL throughout.
For `Cc1nc(C)c(COC(=O)CC[C@@H](C)C2CCC3C4C(C[C@H](O)C32C)C2(C)CC[C@@H](O)CC2C[C@H]4O)nc1C` (stereo partly drawn) [Compound 6, 3α,7α,12α-Trihydroxy-5β-cholanic acid-3,5,6-trimethylpyrazin-2-methyl ester], the half-inhibitory concentration (IC50) in experiment [1] (setting [7]), in experiment [2] (setting [8]), in experiment [3] (setting [9]), in experiment [4] (setting [10]) and in experiment [5] (setting [11]) was above 10 µg/mL each time. For the same compound, the entries for the “Number of microvessels on CAM” value in experiment [6] (dose 10 μg/egg) and in experiment [6] (dose 40 μg/egg) were 6.2 ± 2.40 and 5.7 ± 2.07, respectively.
For `CC1(C)CC[C@]2(C(=O)O)CC[C@]3(C)C(=CC[C@@H]4[C@@]5(C)CC[C@H](O)C(C)(C)[C@@H]5CC[C@]43C)[C@@H]2C1` [OA, oleanolic acid], the IC50 in experiment [1] (setting [7]), in experiment [2] (setting [8]), in experiment [3] (setting [9]), in experiment [4] (setting [10]) and in experiment [5] (setting [11]) was above 10 µg/mL throughout.
Consider `C[C@H](CCC(=O)O)[C@H]1CC[C@H]2[C@@H]3[C@H](O)C[C@@H]4C[C@H](O)CC[C@]4(C)[C@H]3C[C@H](O)[C@]12C` [CA, cholic acid], for which the IC50 in experiment [1] (Bel-7402, 96 h) was above 10 µg/mL; in experiment [2] (A549, 96 h), above 10 µg/mL; in experiment [3] (HCT-8, 96 h), above 10 µg/mL; in experiment [4] (BGC-823, 96 h), above 10 µg/mL; in experiment [5] (A2780, 96 h), above 10 µg/mL.
Turning to `Cc1nc(C)c(COC(=O)/C=C/c2ccccc2)nc1C` [Compound 11, 3-Phenyl-2-propenoic acid-3,5,6-trimethylpyrazin-2-methyl ester], the IC50 was 9.4 µg/mL (≈ 33.3 µM) in experiment [1] (setting [7]); 7.83 µg/mL (≈ 27.7 µM) in experiment [2] (setting [8]); above 10 µg/mL in experiment [3] (setting [9]); above 10 µg/mL in experiment [4] (setting [10]); above 10 µg/mL in experiment [5] (setting [11]). Further, the “Number of microvessels on CAM” value was 10.3 ± 2.73 in experiment [6] (dose 10 μg/egg) and 7.0 ± 3.03 in experiment [6] (dose 40 μg/egg).
As for `Cc1nc(C)c(C)nc1C` [TMP, ligustrazine], the 50% inhibitory concentration (IC50) in experiment [1] (setting [7]), in experiment [2] (setting [8]), in experiment [3] (setting [9]), in experiment [4] (setting [10]) and in experiment [5] (setting [11]) was above 10 µg/mL each time.
In the case of `COc1cc(/C=C/C(=O)CC(=O)/C=C/c2ccc(O)c(OC)c2)ccc1O` [CU, curcumin], the half-maximal inhibitory concentration (IC50) is 6.5 µg/mL (≈ 17.6 µM) in experiment [1] (setting [7]); 6.52 µg/mL (≈ 17.7 µM) in experiment [2] (setting [8]); 6.28 µg/mL (≈ 17 µM) in experiment [3] (setting [9]); 6.81 µg/mL (≈ 18.5 µM) in experiment [4] (setting [10]); 6.52 µg/mL (≈ 17.7 µM) in experiment [5] (setting [11]).
Take `C=C(CCC(C(=O)O)[C@H]1[C@H](O)C[C@@]2(C)C3=CC[C@H]4C(C)(C)[C@@H](OC(C)=O)CC[C@]4(C)C3=CC[C@]12C)C(C)C` (some centres unmarked) [DPA, dehydropachymic acid]: the “IC50 Bel 7402” value in experiment [1] (setting [12]) is recorded as “— ^a (IC50 > 10.0 ig/mL)”. Besides, in experiment [2] (setting [12]), the “IC50 A549” value is given as “— (IC50 > 10.0 ig/mL)”. For the same compound, the “IC50 HCT-8” value in experiment [3] (setting [12]) is given as “— (IC50 > 10.0 ig/mL)”. Besides, the “IC50 BGC-823” value in experiment [4] (setting [12]) is recorded as “— (IC50 > 10.0 ig/mL)”. In experiment [5] (setting [12]), the “IC50 A2780” value is on record as “— (IC50 > 10.0 ig/mL)”.
In the case of `Cc1nc(C)c(COC(=O)[C@@]2(C)CCC3(C)CC[C@]4(C)C(=CC(=O)C5C6(C)CCC(O)C(C)(C)C6CCC54C)C3C2)nc1C` (stereo partly drawn) [Compound 10, (3β,18α,20β)-3-Hydroxy-11-oxoolean-12-en-29-oicacid-3,5,6-trimethylpyrazin-2-methyl ester], the IC50 in experiment [1] (setting [7]), in experiment [2] (setting [8]), in experiment [3] (setting [9]), in experiment [4] (setting [10]) and in experiment [5] (setting [11]) was above 10 µg/mL each time. The “Number of microvessels on CAM” value in experiment [6] (dose 10 μg/egg) came out at 9.5 ± 1.76; in experiment [6] (dose 40 μg/egg), 9.8 ± 2.14.
In the case of “1,7-bis(4-(3,5,6-Trimethylpyrazin-2-yl)-3-methoxyphenyl)-1,6-heptadiene-3,5-dione [Compound 4]”, the “IC50 Bel 7402” value in experiment [1] (setting [12]) was found to be 6.391 µg/mL. The “IC50 A549” value in experiment [2] (setting [12]) worked out at 5.890 µg/mL. Moreover, in experiment [3] (setting [12]), the “IC50 HCT-8” value came out at 7.106 µg/mL. For the same compound, the “IC50 BGC-823” value in experiment [4] (setting [12]) was 5.472 µg/mL. Moreover, the “IC50 A2780” value in experiment [5] (setting [12]) stood at 5.540 µg/mL. The “Number of microvessels on CAM” value in experiment [6] (dose 10 μg/egg) came out at 3.8 ± 2.79; in experiment [6] (dose 40 μg/egg), 1.4 ± 1.22. Moreover, the “Anti-angiogenesis effect on CAM (in words)” value in experiment [6] (doses of 10 μg/egg and 40 μg/egg) is on record as “dramatically block the growth of new vessels”.
`Cc1nc(C)c(COC(=O)C23CCC(C)(C)CC2C2=CCC4C5(C)CCC(O)C(C)(C)C5CCC4(C)[C@]2(C)CC3)nc1C` (stereo partly drawn) [Compound 7, 3β-Hydroxyolea-12-en-28-oic acid-3,5,6-trimethylpyrazin-2-methyl ester]: the half-maximal inhibitory concentration (IC50) in experiment [1] (setting [7]) is 7.61 µg/mL (≈ 12.9 µM); in experiment [2] (setting [8]), above 10 µg/mL; in experiment [3] (setting [9]), 9.27 µg/mL (≈ 15.7 µM); in experiment [4] (setting [10]), above 10 µg/mL; in experiment [5] (setting [11]), above 10 µg/mL. Further, the “Number of microvessels on CAM” value in experiment [6] (dose 10 μg/egg) is 12.0 ± 2.90; in experiment [6] (dose 40 μg/egg), 9.5 ± 4.55.
